Source: US12350250B2, “Aggrelytes for treating ocular conditions” (The Regents of the University of Colorado, a Body Corporate, priority 2022, dated 2025)

What was measured:
[1] = system: human lens cortical proteins; test: Identification of AcK sites in proteins of Aggrelyte-2-treated lens (AcK peptide enrichment, LC-MS/MS); design: key to Fold Change (Aggrelyte-2 vs Control) [Total Sum]: *: were not detected in the control lens but were prominent in the Aggrelyte-2-treated lens
Method: (§1) The AcK modification sites and relative levels at those sites in the Aggrelyte-2-treated and untreated (control) human lens cortical proteins were evaluated in the lens (from a donor) that had the largest overall AcK differential measured by Western blot analysis (blot not shown; densitometric summary in FIG. 14B) and LC-MS/MS (FIG. 15B). Each sample (315 μg) was spiked with 200 ng of acetylated bovine serum albumin (AcBSA) protein standard, reduced, alkylated, and digested with trypsin using a urea-based method and then desalted using a C18 resin before being lyophilized. The samples were then immunoprecipitated according to the manufacturer's protocol for the PTMScan Acetyl-Lysine Motif Kit No. 13416 (Cell Signaling Technology). Peptides were purified with a Pierce C18 spin column (Thermo Fisher Scientific) and dried in a Speed Vac concentrator at 45° C. The peptides were resuspended in 3% acetonitrile in 0.1% formic acid for MS analysis.
(§2) The enriched AcK-bearing peptides were loaded onto a 2 cm PepMap 100 nanoviper trapping column and chromatographically resolved with a 0.075×250 mm, […] Acclaim PepMap RSLC reversed-phase nanocolumn (Thermo Scientific) using a 1290 Infinity II LC system equipped with a nanoadapter (Agilent). The mobile phase consisted of water+0.1% formic acid (A) and 90% aqueous acetonitrile+0.1% formic acid (B). Samples were loaded onto the trapping column at 3.0 μL/min for 3.5 min under initial conditions before being chromatographically separated at an effective flow rate of 330 nL/min using a gradient of 3-8% B over 3 min, 8-30% B over 33 min, and 30-40% B over 4 min at 40° C. The gradient was followed by a column wash at 75% B for 5 min. Data were collected using a 6550 Q-TOF equipped with a nanosource (Agilent Technologies) operated using intensity-dependent CID MS/MS to generate peptide identifications. MS/MS data were collected in positive ion polarity over a mass range of 290-1700 m/z at a scan rate of 8 spectra/second for MS scans and a mass range of 50-1700 m/z at a scan rate of 3 spectra/second for MS/MS scans. All charge states, except singly charged species, were allowed during MS/MS acquisition.
(§3) Tandem mass spectra were extracted, searched, and summarized using PEAKS X+ Studio 10.5 software (Bioinformatics Solutions Inc., Waterloo, Ontario). The spectra were searched against the UniProtKB SwissProt [2022_02] Homo sapiens database, allowing for up to three missed semitryptic cleavages with fixed carbamidomethylation of cysteine and a maximum of four variable modifications of deamidation of asparagine and glutamine, oxidation of methionine and/or acetylation of lysine per peptide. The allowed monoisotopic peptide mass tolerance was ±15.0 ppm, and the MS/MS tolerance was ±0.05 da. A false discovery rate (FDR) filter of 0.5% was used corresponding to a −10 log P score ≥19.3.
(§4) The MS-only level data from the LC-MS/MS analyses were extracted and aligned using Profinder V.B.10.01 software (Agilent Technologies). Retention times, neutral masses, and chemical formulas generated from identified acetyl peptides were used to perform batch-targeted feature extraction. Data were extracted with an ion count threshold of two or more ions, 5000 counts, and a score threshold of 70. The score was based on the quality of the mass accuracy, isotope abundances, and isotope spacing of compounds based on the chemical formula of the target peptides within a specified retention time window. Using the peptide isotope model, charge states 2-6 were allowed with H^+ and Na^+ charge carriers. The retention time window and mass window alignment tolerances were set to 0.4 min and 10 ppm, respectively. The extracted peptide peak areas were then used to determine a fold change value in the treated vs. control samples to help identify potential AcK sites that may be affected by aggrelyte-2. Due to a lack of statistical power, a three-fold change filter was used as a sufficient cutoff to identify potential AcK sites of interest. […]

[2] = molecular target: T1, human lens cortical proteins (Homo sapiens, UniProt P02489); test: as above; design: key to Fold Change (Aggrelyte-2 vs Control) [Total Sum]: *: were not detected in the control lens but were prominent in the Aggrelyte-2-treated lens; settings: for Aggrelyte-2 treated Area: lens of donor
T1 construct: from tissue; host or cells: cortex of a human lens from a donor, treated ex vivo
T1 sequence (P02489 1-173): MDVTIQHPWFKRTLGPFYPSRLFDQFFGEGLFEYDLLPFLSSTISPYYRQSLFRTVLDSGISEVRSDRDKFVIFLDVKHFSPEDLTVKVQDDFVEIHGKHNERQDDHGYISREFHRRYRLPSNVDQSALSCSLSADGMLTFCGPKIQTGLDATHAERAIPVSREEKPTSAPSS
Method: as §1, §2, §3, §4

[3] = molecular target: T2, human lens cortical proteins (Homo sapiens, UniProt P32320); test: as above; design: key to Fold Change (Aggrelyte-2 vs Control) [Total Sum]: *: were not detected in the control lens but were prominent in the Aggrelyte-2-treated lens; settings: Cytidine deaminase K51
T2 construct: from tissue; host or cells: cortex of a human lens from a donor, treated ex vivo
Method: as §1, §2, §3, §4

[4] = molecular target: T3, human lens cortical proteins (Homo sapiens, UniProt Q71U36); test: as above; design: key to Fold Change (Aggrelyte-2 vs Control) [Total Sum]: *: were not detected in the control lens but were prominent in the Aggrelyte-2-treated lens; settings: Tubulin alpha-1A chain K370
T3 construct: from tissue; host or cells: cortex of a human lens from a donor, treated ex vivo
Method: as §1, §2, §3, §4

mouse lenses = test: Stiffness of ex vivo mouse lenses (Example 18); design: species or system mouse (C57BL/6J); settings: 1 mM, 24 hours, ex vivo mouse lenses (3-6 months old); not significant
Method: In this example, the lenses were dissected from the eyes of mice (C57BL/6J, 3-6 months old, Jackson Laboratories, Stock No. 000664) by a posterior approach and incubated without (“Control”) or with Aggrelyte-2 or Aggrelyte-2A (1 mM) for 24 hours in serum-free and phenol-red-free MEM (297 mOsm) at 37° C. Lens stiffness was measured as in Example 10, except that the load was applied at 50 mg increments.

T2 sequence (P32320 whole entry): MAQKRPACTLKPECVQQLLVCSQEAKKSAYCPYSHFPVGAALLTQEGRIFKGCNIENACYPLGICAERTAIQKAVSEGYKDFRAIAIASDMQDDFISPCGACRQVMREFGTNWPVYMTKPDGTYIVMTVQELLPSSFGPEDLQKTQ
T3 sequence (Q71U36 whole entry): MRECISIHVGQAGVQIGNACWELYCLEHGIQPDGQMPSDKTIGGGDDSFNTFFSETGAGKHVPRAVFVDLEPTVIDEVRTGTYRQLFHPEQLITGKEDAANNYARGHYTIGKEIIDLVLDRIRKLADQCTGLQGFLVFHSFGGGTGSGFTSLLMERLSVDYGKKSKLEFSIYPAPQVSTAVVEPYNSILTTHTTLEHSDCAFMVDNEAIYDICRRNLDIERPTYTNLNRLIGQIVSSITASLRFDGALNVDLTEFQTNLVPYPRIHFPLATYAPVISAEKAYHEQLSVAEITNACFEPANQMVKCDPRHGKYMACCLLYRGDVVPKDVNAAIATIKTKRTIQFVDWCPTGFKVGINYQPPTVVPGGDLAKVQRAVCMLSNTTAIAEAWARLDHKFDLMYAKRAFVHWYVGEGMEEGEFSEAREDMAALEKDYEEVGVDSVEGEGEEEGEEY

SMILES: COC(=O)[C@H](CSC(C)=O)NC(C)=O [Aggrelyte-2, N,S-diacetyl-L-cysteine methyl ester]
- Aggrelyte-2 treated Area ([1]; Acetylated Bovine Serum Albumin Standard Spike at 200 ng in each sample (workup control), 17 peptides summed): 3.68E+07
- Fold Change (Aggrelyte-2 vs Control) [Total Sum] ([1]; Actin cytoplasmic 1 K61): 3.48
- Aggrelyte-2 treated Area ([1]; Actin cytoplasmic 1 K61, lens of donor): 7.63E+04
- Fold Change (Aggrelyte-2 vs Control) [Total Sum] ([1]; Actin cytoplasmic 1 K213): 3.53
- Aggrelyte-2 treated Area ([1]; Actin cytoplasmic 1 K213, lens of donor): 1.03E+05
- Fold Change (Aggrelyte-2 vs Control) [Total Sum] ([1]; AlphaB-crystallin K72): 3.56
- Aggrelyte-2 treated Area ([1]; AlphaB-crystallin K72, lens of donor): 6.31E+05
- Fold Change (Aggrelyte-2 vs Control) [Total Sum] ([1]; AlphaB-crystallin K174): 7.41
- Aggrelyte-2 treated Area ([1]; AlphaB-crystallin K174, lens of donor): 5.84E+06
- Fold Change (Aggrelyte-2 vs Control) [Total Sum] ([1]; BetaB2-crystallin K42): 25.80
- Aggrelyte-2 treated Area ([1]; BetaB2-crystallin K42, lens of donor): 6.98E+05
- Fold Change (Aggrelyte-2 vs Control) [Total Sum] ([1]; Filensin K360): 3.94
- Aggrelyte-2 treated Area ([1]; Filensin K360, lens of donor): 1.16E+05
- Fold Change (Aggrelyte-2 vs Control) [Total Sum] ([1]; Glyceraldehyde-3-phosphate dehydrogenase K263): 3.18
- Aggrelyte-2 treated Area ([1]; Glyceraldehyde-3-phosphate dehydrogenase K263, lens of donor): 1.04E+05
- Fold Change (Aggrelyte-2 vs Control) [Total Sum] ([1]; Peroxiredoxin-6 K56): 3.26
- Aggrelyte-2 treated Area ([1]; Peroxiredoxin-6 K56, lens of donor): 5.83E+05
- Fold Change (Aggrelyte-2 vs Control) [Total Sum] ([1]; Phakinin K400): 14.48
- Aggrelyte-2 treated Area ([1]; Phakinin K400, lens of donor): 2.21E+05
- Fold Change (Aggrelyte-2 vs Control) [Total Sum] ([1]; Retinal dehydrogenase 1 K495): 9.12
- Aggrelyte-2 treated Area ([1]; Retinal dehydrogenase 1 K495, lens of donor): 9.11E+04
- Fold Change (Aggrelyte-2 vs Control) [Total Sum] ([2]; AlphaA-crystallin K70): 3.13
- Aggrelyte-2 treated Area ([2]; AlphaA-crystallin K70): 8.80E+06
- Fold Change (Aggrelyte-2 vs Control) [Total Sum] ([2]; AlphaA-crystallin K88): *
- Aggrelyte-2 treated Area ([2]; AlphaA-crystallin K88): 1.11E+05
- Fold Change (Aggrelyte-2 vs Control) [Total Sum] [3]: 3.66
- Aggrelyte-2 treated Area ([3]; lens of donor): 7.26E+05
- Fold Change (Aggrelyte-2 vs Control) [Total Sum] [4]: *
- Aggrelyte-2 treated Area ([4]; lens of donor): 4.24E+04
- reduction of lens stiffness (mouse lenses): approximately 20%
